pEC50, pIC50: −log10 of the molar value. Values belong to the molecule of their own block, whether it stands above or below them.
Legend:
[1] = target: T1, Delta-type opioid receptor (Homo sapiens, UniProt P41143); test: Agonist activity at human delta opioid receptor expressed in CHO cell membrane by [35S]GTPgammaS binding assay; type: functional, cell membranes
Mu-type opioid receptor [2] = target: T2, Mu-type opioid receptor (Homo sapiens, UniProt P35372); test: Agonist activity at human mu opioid receptor expressed in CHO cell membrane by [35S]GTPgammaS binding assay; type: functional, cell membranes
Mus musculus = test: Biodistribution in ICR mouse brain at 30 mg/kg, po after 60 mins; type: ADME, organism-based; design: dose 30 mg/kg, route oral; details: in vivo, 1 h
[3] = target: Synaptic vesicular amine transporter (Homo sapiens) (UniProt Q05940); test: Inhibition of monoamine transporter at 10 uM
[4] = Ratio of drug level in brain to plasma in ICR mouse at 30 mg/kg, po after 60 mins; type: ADME, organism-based; design: dose 30 mg/kg, route oral; details: read-out: BPR
Nociceptin receptor [5] = target: T3, Nociceptin receptor (Homo sapiens, UniProt P41146); test: Antagonist activity at human ORL1 receptor by [35S]GTPgammaS binding assay; type: functional
[6] = Half life in Sprague-Dawley rat at 3 mg/kg, po and 1 mg/kg, iv; type: ADME, organism-based; details: in vivo
[7] = Clearance in rhesus monkey at 3 mg/kg, po and 1 mg/kg, iv; type: ADME, organism-based, Macaca mulatta; details: in vivo
[8] = Clearance in Sprague-Dawley rat at 3 mg/kg, po and 1 mg/kg, iv; type: ADME, organism-based; details: in vivo
[9] = target: T1, Delta-type opioid receptor; test: Displacement of [3H]naltrindole from human delta opioid receptor expressed in CHO cell membrane; type: cell membranes
[10] = Biodistribution in ICR mouse plasma at 30 mg/kg, po after 60 mins; type: ADME, organism-based; design: dose 30 mg/kg, route oral; details: read-out: Drug uptake
[11] = Half life in rhesus monkey at 3 mg/kg, po and 1 mg/kg, iv; type: ADME, organism-based, Macaca mulatta; details: in vivo
[12] = Half life in ICR mouse at 3 mg/kg, po and 1 mg/kg, iv; type: ADME, organism-based; details: in vivo
[13] = target: 5-hydroxytryptamine receptor 2B (Homo sapiens) (UniProt P41595); test: Inhibition of 5HT2B receptor at 10 uM
Nociceptin receptor [14] = target: T3, Nociceptin receptor; test: Displacement of [125I]Tyr14-NC/OFQ from human ORL1 receptor
[15] = target: T4, Kappa-type opioid receptor (Homo sapiens, UniProt P41145); test: Agonist activity at human kappa opioid receptor expressed in CHO cell membrane by [35S]GTPgammaS binding assay
hERG (KCNH2) = hERG (KCNH2) (Homo sapiens, UniProt Q12809); test: Inhibition of human ERG at 10 uM
[16] = Inhibition of sodium channel site 2 at 10 uM
Mu-type opioid receptor [17] = target: T2, Mu-type opioid receptor; test: Displacement of [3H]diprenorphin from human mu opioid receptor expressed in CHO cell membrane; type: cell membranes
[18] = Bioavailability in rhesus monkey at 3 mg/kg, po and 1 mg/kg, iv; type: ADME, organism-based, Macaca mulatta; details: in vivo
[19] = Bioavailability in Sprague-Dawley rat at 3 mg/kg, po and 1 mg/kg, iv; type: ADME, organism-based; details: in vivo
[20] = Metabolic stability in human liver microsomes assessed as drug remaining after 30 mins; type: ADME, Microsome; details: read-out: Stability
[21] = Bioavailability in ICR mouse at 3 mg/kg, po and 1 mg/kg, iv; type: ADME, organism-based; details: in vivo
[22] = target: T4, Kappa-type opioid receptor; test: Displacement of [3H]U-69593 from human kappa opioid receptor expressed in CHO cell membrane; type: cell membranes
[23] = Clearance in ICR mouse at 3 mg/kg, po and 1 mg/kg, iv; type: ADME, organism-based; details: in vivo

T1 sequence (P41143 whole entry): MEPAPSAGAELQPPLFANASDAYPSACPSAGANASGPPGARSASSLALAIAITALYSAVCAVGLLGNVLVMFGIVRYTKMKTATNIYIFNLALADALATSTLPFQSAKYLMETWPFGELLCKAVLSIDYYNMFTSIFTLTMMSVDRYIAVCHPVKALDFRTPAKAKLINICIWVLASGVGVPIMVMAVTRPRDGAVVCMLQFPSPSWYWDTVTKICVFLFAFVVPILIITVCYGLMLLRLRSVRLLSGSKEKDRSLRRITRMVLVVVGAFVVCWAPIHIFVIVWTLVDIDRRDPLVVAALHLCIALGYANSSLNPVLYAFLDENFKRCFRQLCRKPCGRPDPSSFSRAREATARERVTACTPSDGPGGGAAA
T3 sequence (P41146 whole entry): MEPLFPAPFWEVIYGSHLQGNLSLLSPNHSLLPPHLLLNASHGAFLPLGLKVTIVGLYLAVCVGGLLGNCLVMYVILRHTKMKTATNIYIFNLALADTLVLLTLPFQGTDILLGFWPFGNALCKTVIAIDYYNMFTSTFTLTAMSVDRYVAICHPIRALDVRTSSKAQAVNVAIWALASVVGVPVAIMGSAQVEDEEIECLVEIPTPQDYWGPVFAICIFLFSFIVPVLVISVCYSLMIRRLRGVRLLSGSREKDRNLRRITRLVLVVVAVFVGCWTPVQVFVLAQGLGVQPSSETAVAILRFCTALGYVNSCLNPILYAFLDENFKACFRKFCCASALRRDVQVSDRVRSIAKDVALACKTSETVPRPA
T4 sequence (P41145 whole entry): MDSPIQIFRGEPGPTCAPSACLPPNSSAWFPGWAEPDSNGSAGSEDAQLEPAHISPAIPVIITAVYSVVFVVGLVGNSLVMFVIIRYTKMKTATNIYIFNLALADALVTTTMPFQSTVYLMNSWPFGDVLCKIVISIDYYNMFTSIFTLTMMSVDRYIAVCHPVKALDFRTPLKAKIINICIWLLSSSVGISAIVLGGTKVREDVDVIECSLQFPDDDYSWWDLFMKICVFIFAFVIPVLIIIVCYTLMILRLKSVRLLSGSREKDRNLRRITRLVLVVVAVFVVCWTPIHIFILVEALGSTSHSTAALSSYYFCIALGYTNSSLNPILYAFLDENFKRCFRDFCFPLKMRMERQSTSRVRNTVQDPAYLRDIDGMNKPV
T2 sequence (P35372 whole entry): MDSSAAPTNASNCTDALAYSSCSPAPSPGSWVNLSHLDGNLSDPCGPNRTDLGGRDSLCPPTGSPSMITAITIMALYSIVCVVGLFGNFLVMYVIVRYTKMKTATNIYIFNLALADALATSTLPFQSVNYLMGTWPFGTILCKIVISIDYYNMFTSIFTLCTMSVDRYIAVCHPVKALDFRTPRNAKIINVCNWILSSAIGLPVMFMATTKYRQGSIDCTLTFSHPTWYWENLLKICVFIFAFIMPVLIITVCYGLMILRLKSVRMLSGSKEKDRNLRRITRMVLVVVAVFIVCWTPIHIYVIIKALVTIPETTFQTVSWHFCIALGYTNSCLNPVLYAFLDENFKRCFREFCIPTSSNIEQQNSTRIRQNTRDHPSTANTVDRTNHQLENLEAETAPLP
Chain of hERG (KCNH2) (Q12809 whole entry): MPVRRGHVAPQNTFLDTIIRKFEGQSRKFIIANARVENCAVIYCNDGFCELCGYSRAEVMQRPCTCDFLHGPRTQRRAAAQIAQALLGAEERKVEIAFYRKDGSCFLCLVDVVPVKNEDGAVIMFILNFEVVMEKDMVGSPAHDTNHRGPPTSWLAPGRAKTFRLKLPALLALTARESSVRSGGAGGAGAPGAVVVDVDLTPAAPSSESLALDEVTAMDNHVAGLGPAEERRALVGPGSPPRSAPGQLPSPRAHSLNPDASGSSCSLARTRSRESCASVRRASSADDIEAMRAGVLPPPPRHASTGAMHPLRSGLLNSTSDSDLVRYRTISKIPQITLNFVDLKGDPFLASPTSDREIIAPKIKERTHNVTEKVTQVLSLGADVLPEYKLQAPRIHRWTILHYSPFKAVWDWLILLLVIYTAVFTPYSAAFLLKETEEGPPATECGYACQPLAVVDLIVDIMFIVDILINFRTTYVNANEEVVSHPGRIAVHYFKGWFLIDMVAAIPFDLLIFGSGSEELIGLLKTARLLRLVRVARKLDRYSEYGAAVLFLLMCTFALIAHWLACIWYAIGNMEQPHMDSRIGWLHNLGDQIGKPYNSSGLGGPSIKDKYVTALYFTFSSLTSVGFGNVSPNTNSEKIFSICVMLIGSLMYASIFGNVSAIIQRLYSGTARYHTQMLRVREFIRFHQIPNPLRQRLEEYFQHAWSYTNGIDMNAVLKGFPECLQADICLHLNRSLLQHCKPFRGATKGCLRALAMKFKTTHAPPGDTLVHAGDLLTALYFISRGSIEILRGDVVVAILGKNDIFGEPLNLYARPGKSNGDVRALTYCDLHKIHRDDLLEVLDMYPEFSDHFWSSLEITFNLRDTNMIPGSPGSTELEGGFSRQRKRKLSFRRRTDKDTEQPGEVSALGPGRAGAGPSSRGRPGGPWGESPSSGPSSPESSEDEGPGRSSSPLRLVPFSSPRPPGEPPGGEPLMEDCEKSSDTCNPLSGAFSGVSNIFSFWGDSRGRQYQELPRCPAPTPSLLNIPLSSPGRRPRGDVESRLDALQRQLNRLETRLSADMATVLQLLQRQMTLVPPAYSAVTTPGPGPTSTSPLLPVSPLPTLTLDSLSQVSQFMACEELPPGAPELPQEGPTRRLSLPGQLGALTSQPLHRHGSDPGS
Chain of Synaptic vesicular amine transporter (Homo sapiens) (Q05940 whole entry): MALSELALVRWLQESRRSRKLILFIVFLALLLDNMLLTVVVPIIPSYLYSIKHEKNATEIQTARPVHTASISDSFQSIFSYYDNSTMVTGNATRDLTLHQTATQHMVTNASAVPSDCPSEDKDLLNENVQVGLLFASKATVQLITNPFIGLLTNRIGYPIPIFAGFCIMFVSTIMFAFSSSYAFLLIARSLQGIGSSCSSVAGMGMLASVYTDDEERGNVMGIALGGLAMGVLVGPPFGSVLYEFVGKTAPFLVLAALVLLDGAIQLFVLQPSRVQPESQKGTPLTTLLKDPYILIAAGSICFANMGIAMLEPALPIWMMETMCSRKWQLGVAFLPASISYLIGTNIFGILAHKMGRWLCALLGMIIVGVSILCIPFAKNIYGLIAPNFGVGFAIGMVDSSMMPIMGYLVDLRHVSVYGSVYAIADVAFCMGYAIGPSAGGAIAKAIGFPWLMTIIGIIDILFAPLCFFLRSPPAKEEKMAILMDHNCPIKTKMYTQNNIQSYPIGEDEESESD
Chain of 5-hydroxytryptamine receptor 2B (Homo sapiens) (P41595 whole entry): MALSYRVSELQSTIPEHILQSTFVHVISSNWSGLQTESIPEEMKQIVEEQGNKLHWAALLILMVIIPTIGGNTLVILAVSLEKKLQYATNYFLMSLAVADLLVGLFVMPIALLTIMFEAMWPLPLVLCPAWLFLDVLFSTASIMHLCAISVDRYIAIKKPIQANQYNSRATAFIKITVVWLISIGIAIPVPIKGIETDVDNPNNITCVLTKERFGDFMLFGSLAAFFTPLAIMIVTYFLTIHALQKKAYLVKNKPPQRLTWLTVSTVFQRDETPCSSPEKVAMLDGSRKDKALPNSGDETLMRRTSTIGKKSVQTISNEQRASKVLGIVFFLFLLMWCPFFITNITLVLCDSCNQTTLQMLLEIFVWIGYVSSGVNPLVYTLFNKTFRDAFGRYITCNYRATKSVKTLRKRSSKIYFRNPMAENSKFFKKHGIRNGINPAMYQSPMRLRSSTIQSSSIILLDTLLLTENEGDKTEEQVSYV

Structure (SMILES): C[C@@H]1CN(CCO)CCN1c1cc2[nH]c(SC(C)(C)C)nc2cc1Cl
pIC50 [1]: 5.92 | pIC50 (Mu-type opioid receptor [2]): 7.01 | Drug uptake (Mus musculus): 1.04 µmol/kg | inhibition [3]: 52% | Kp at 1 h [4]: 0.47 | pIC50 (Nociceptin receptor [5]): 9.19 | half-life [6]: 55.2 min | clearance [7]: 1.2 L/h/kg | clearance [8]: 4.86 L/h/kg | pIC50 [9]: < 6.00 | concentration at 1 h [10]: 2.38 µM | half-life [11]: 186 min | half-life [12]: 48.6 min | inhibition [13]: 52% | pIC50 (Nociceptin receptor [14]): 8.59 | pIC50 [15]: 6.74 | inhibition at 10 µM (hERG (KCNH2)): 86% | inhibition [16]: 68% | pIC50 (Mu-type opioid receptor [17]): 5.72 | bioavailability [18]: 37% | bioavailability [19]: 29% | remaining at 0.5 h [20]: 87% | bioavailability [21]: 33% | pIC50 [22]: 6.92 | clearance [23]: 7.26 L/h/kg

Structure (SMILES): C[C@H]1CN(CCO)CCN1c1cc2[nH]c(SC(C)(C)C)nc2cc1Cl
pEC50 [1]: 7.85 | Emax [1]: 94% | pIC50 (Mu-type opioid receptor [2]): 7.60 | pIC50 (Nociceptin receptor [5]): 8.66 | pIC50 [9]: 6.62 | pIC50 (Nociceptin receptor [14]): 8.96 | pEC50 [15]: 7.74 | pIC50 (Mu-type opioid receptor [17]): 7.17 | remaining at 0.5 h [20]: 70% | pIC50 [22]: 8.28

Structure (SMILES): CCC(C)(CC)Sc1nc2cc(Cl)c(N3CCN(CCO)CC3)cc2[nH]1
remaining at 0.5 h [20]: 36%

Structure (SMILES): CCC(CC)Sc1nc2cc(Cl)c(N3CCN(CCO)C(C)C3)cc2[nH]1 (racemic)
pIC50 (Nociceptin receptor [5]): 7.66 | pIC50 (Nociceptin receptor [14]): 8.10 | remaining at 0.5 h [20]: 17%

Structure (SMILES): CC(C)(C)Sc1nc2cc(Cl)c(N3CCN(CCO)CC3)cc2[nH]1
pIC50 [9]: < 6.00 | remaining at 0.5 h [20]: 71%

The remaining lines, values ahead:

pIC50 (Nociceptin receptor [5]): 7.57 | pIC50 (Nociceptin receptor [14]): 7.74 | remaining at 0.5 h [20]: 63%
Structure (SMILES): CCC(CC)Sc1nc2cc(Cl)c(N3C[C@@H]4C[C@H]3CN4CCO)cc2[nH]1

pIC50 (Nociceptin receptor [5]): 7.23 | pIC50 (Nociceptin receptor [14]): 7.14 | remaining at 0.5 h [20]: 7%
Structure (SMILES): CCC(CC)Sc1nc2cc(Cl)c(N3CCN(CCO)C(C)(C)C3)cc2[nH]1

Source: ChEMBL document CHEMBL1150320, “Novel ORL1-selective antagonists with oral bioavailability and brain penetrability” (Bioorg Med Chem Lett, 2008)
